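Method: 48-hour compound exposure of cells in 96-well plates, five concentrations, linear interpolation of endpoints. GI50 = concentration required for 50% inhibition of growth. TGI marks complete inhibition of growth.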
Experiments:
Experiment in all cases: NCI tumour cell line growth inhibition, 48 h
DMS 114 small cell lung = test system: DMS 114 small cell lung
IGROV1 ovarian = test system: IGROV1 ovarian
LXFL 529 NSCLC = test system: LXFL 529 NSCLC
M14 melanoma = test system: M14 melanoma
OVCAR-8 ovarian = test system: OVCAR-8 ovarian
SF-295 CNS = test system: SF-295 CNS
SNB-75 CNS = test system: SNB-75 CNS
DMS 273 small cell lung = test system: DMS 273 small cell lung
SNB-19 CNS = test system: SNB-19 CNS
KM20L2 colon = test system: KM20L2 colon
MDA-MB-435 = test system: MDA-MB-435

| SMILES | TGI (DMS 114 small cell lung) [µM] | TGI (IGROV1 ovarian) [µM] | TGI (LXFL 529 NSCLC) [µM] | TGI (M14 melanoma) [µM] | TGI (OVCAR-8 ovarian) [µM] | TGI (SF-295 CNS) [µM] | TGI (SNB-75 CNS) [µM] | TGI (DMS 273 small cell lung) [µM] | TGI (SNB-19 CNS) [µM] | TGI (KM20L2 colon) [µM] | GI50 (MDA-MB-435) [µM] | TGI (MDA-MB-435) [µM] | GI50 (SNB-75 CNS) [µM] |
| --- | --- | --- | --- | --- | --- | --- | --- | --- | --- | --- | --- | --- | --- |
| Brc1cccc(C2SCc3nc4ccccc4n32)c1 (stereo not given) | 35.2 | 98.9 | > 100 | 53.1 | 60.7 | 86.3 | 3.51 | – | – | – | – | – | – |
| CCOC(=O)c1oc2ccc(OC)c3c2c1CCC3 | > 100 | > 100 | > 100 | > 100 | > 100 | > 100 | > 100 | > 100 | > 100 | – | – | – | – |
| O=C1OC(CCCl)(c2ccccc2)CC1CN1CCOCC1 (stereo not given) | 42.9 | 50.1 | 33.7 | 57.1 | 38.5 | > 100 | 51.7 | – | – | > 100 | – | – | – |
| O=S(=O)(c1ccccc1)C(CN1CCCCC1)S(=O)(=O)c1ccccc1 | – | > 100 | > 100 | > 100 | > 100 | > 100 | > 100 | > 100 | > 100 | > 100 | – | – | – |
| CCCCCCCCCCCC(=O)OCCOCCOCCOCCOCCOCc1ccc(OC)cc1 | > 100 | > 100 | > 100 | > 100 | > 100 | > 100 | > 100 | > 100 | > 100 | > 100 | – | – | – |
| C[Si](C)(C)OC1(C#N)C2C3CC4C2C(=O)C2C4C3C21 (stereo not given) | > 100 | > 100 | > 100 | > 100 | > 100 | – | > 100 | > 100 | > 100 | > 100 | – | – | – |
| C[C@]12CCC3[C@@H](CC[C@@H]4c5nonc5CC[C@]34C)C1CCC(=O)N2 (stereo not given in full) | – | > 100 | > 100 | > 100 | > 100 | > 100 | > 100 | > 100 | > 100 | > 100 | > 100 | > 100 | 35.2 |
| Cn1cnc2nc(Cl)nc(NC(C)(C)C(C)(C)O)c21 | > 100 | > 100 | – | > 100 | > 100 | > 100 | > 100 | > 100 | > 100 | > 100 | – | – | – |
| COc1cc2c(cc1OC(=O)CC(C)O)C1C(OC2=O)C(OC(C)=O)C=C2CCN(C)[C@H]21 (stereo not given in full) | – | 70.4 | > 100 | > 100 | > 100 | 49.9 | 38.4 | > 100 | 57.5 | > 100 | – | – | – |
| CCOc1ccc2nc(NC(=O)c3c/c(=N\NC(=O)C[N+](C)(C)C)c4ccc(O)cc4o3)sc2c1 | 4.51 | 8.64 | 4.45 | 3.1 | 7.76 | 11.1 | 3.53 | 28.7 | 17.8 | 10 | – | – | – |
| CCCCCCc1cc(C(=O)Nc2cccc(C(F)(F)F)c2)nc(N)n1 | > 100 | > 100 | > 100 | > 100 | – | > 100 | > 100 | > 100 | > 100 | > 100 | – | – | – |
| c1ccc2c(C3NCCc4[nH]cnc43)cccc2c1 (stereo not given) | > 100 | > 100 | > 100 | > 100 | > 100 | > 100 | > 100 | > 100 | – | > 100 | – | – | – |

From PubChem BioAssay (NCI)
